Measured values taken from patent US10517889B2, “Modulators of SMAD7 expression” (Ionis Pharmaceuticals, Inc., priority 2017, dated 2019).

How the values were obtained:
[1] = Tissue and organ histopathology after oral gavage in CD-1 mice (Example 7); format: in vivo; conditions: daily oral gavage 500 mg/kg for one month, in words
Experimental: Groups of 7-8 week old male CD-1 mice were given an oral gavage dose once daily for 4 weeks of 500 mg/kg of Ionis SMAD7 oligonucleotides. Each group contained 8 mice. One group of male CD-1 mice was administered saline by oral gavage daily.
Histopathology evaluations were performed on the mice treated with Ionis oligonucleotides to evaluate any tissue damage in the liver (with gallbladder), kidneys, heart, spleen, thymus, mesenteric lymph nodes, and different parts of the GI tract, including duodenum, ileum, and colon (proximal and distal). Tissues were collected and fixed in 10% neutral-buffered formalin, embedded in paraffin, sectioned, and stained with hematoxylin and eosin. All the tissues were histologically unremarkable in all mice.

[2] = test system: mouse Smad7 mRNA; experiment: Murine Smad7 mRNA expression after subcutaneous administration in BALB/c mice (Example 10); format: in vivo; conditions: 50 mg/kg subcutaneous once a week for 4 weeks, 24 hours after last dose
Experimental: The objective of this study was to evaluate the efficacy of Ionis SMAD7 antisense oligonucleotides compared to ION 736697/Mongersen in BALB/c mice following 4 weeks of treatment. Both ION 830025 and ION 798781 are cross-reactive with mouse Smad7 mRNA.
Groups of BALB/c mice were subcutaneously administered 50 mg/kg of Ionis SMAD7 oligonucleotides once a week for 4 weeks. Each group contained 4 mice. One group of mice was administered PBS once a week for 4 weeks. […]

[3] = test system: mouse Smad7 mRNA; experiment: Pharmacology: mouse Smad7 mRNA expression in liver, kidney, duodenum, ileum and colon after subcutaneous administration in CD-1 mice (Example 6); format: in vivo; conditions: 50 mg/kg subcutaneously twice a week for 7 weeks, in words
Experimental: Groups of 8-9 week old male CD-1 mice were injected subcutaneously twice a week for 7 weeks with 50 mg/kg of Ionis oligonucleotides (100 mg/kg/week dose). Each group contained 4 mice. One group of male CD-1 mice was injected subcutaneously twice a week for 7 weeks with PBS. Plasma was collected for analysis on day 28.
The pharmacological activity of the Ionis oligonucleotides in mice was assessed by measuring mouse Smad7 mRNA expression in liver, kidney, duodenum, ileum, and colon at necropsy.
Tissue samples from all mice were analyzed for Smad7 mRNA expression using the primer probe set HTS7555 (forward sequence […], designated SEQ ID NO: 2737; reverse sequence […], designated SEQ ID NO: 2738; probe sequence […], designated SEQ ID NO: 2739), which was normalized to mRNA levels of the housekeeping gene, GAPDH. One-way ANOVA with Dunnet's comparison test was used for statistical analysis.

[4] = test system: mouse Smad7 mRNA; experiment: Murine Smad7 mRNA expression after oral administration in BALB/c mice (Example 11); format: in vivo; conditions: orally 500 mg/kg/day for 3 weeks, in words
Experimental: The objective of this study was to evaluate the efficacy of Ionis SMAD7 antisense oligonucleotides in BALB/c mice following daily oral administration. The Ionis oligonucleotides are cross-reactive with mouse Smad7 mRNA.
Groups of BALB/c mice were orally administered 500 mg/kg/day for 3 weeks of human Smad7 oligonucleotides, ION 790615, ION 798781, or ION 830025, or mouse Smad7 oligonucleotide, ION 772797 (a 3-10-3 cEt gapmer with phosphorothioate backbone and sequence […]; designated herein as SEQ ID NO: 2743). One group of mice was orally administered PBS daily for 3 weeks. Each group contained 4 mice.
To evaluate the efficacy of the oligonucleotides, murine Smad7 mRNA expression in the liver, kidneys, duodenum, ileum, and colon was measured using primer probe set RTS1114.

[5] = Plasma chemistry markers after subcutaneous administration in beagle dogs (Example 8); conditions: 30 mg/kg subcutaneously, day 31, in words
Experimental: Groups of 24-25 week old male beagle dogs were injected subcutaneously with 30 mg/kg ION Ionis oligonucleotide. There were 4 animals per group. Dogs were injected every two days for the first week (day 1, 3, and 5) and once weekly thereafter (days 8, 15, 22, and 29). A control group of dogs received subcutaneous injections of PBS. Dogs were sacrificed on day 31 approximately 48 hours after the final dose and organs and plasma were harvested for further analysis.
To evaluate the effect of Ionis SMAD7 oligonucleotides on liver and kidney function, plasma levels of transaminases, albumin, creatine and BUN were measured using an automated clinical chemistry analyzer (Toshiba 200FR Neo chemistry analyzer, Toshiba Co., Japan).

[6] = test system: human SMAD7 mRNA; experiment: Dose-dependent inhibition of human SMAD7 mRNA expression in A431 cells, oligonucleotide added without transfection (Example 5, Study 1); format: cell-based; conditions: SMAD7 mRNA, in words
Experimental: The newly designed compounds disclosed herein are cEt-modified antisense oligonucleotides. […] The studies described below show a comparison of select cEt-modified gapmers and ION0736697/Mongersen.
A431 cells were plated in collagen I-coated 96-well plates in DMEM with […]. Immediately after plating, 0.08 μM, 0.25 μM, 0.74 μM, 2.22 μM, 6.67 μM, or 20.00 μM concentrations of antisense oligonucleotide were added. The plates were shaken briefly before incubating at 37° C. and 10% CO2. After a treatment period of approximately 48 hours, the cells were washed and lyzed and RNA on 384-well Pall plates with DNase I treatment. SMAD7 mRNA levels were measured by quantitative real-time PCR. Primer probe set RTS5062 was used to measure human SMAD7 mRNA levels. SMAD7 mRNA levels were adjusted according to total RNA content, as measured by RIBOGREEN®. Results are presented as percent inhibition of SMAD7 mRNA expression, relative to untreated control cells.
All Ionis oligonucleotides had greater potency than ION 736697/Mongersen.

[7] = Organ weights after oral gavage in beagle dogs (Example 12); conditions: 200 mg by oral gavage for 4 weeks, day 30, in words
Experimental: Groups of 24-25 week old male beagle dogs were administered 200 mg Ionis human SMAD7 oligonucleotide by oral gavage once a week for 4 weeks. There were 4 animals per group. A control group of dogs received oral administration of distilled water. Dogs were sacrificed on day 30 approximately 48 hours after the final dose and organs and plasma were harvested for further analysis.

[8] = Plasma chemistry markers after oral gavage in beagle dogs (Example 12); conditions: 200 mg by oral gavage for 4 weeks, day 30, in words
[9] = test system: murine Smad7 mRNA; experiment: Dose-dependent inhibition of murine Smad7 mRNA in bEND cells, electroporation (Example 5, Study 2); format: cell-based, mouse; conditions: in words
Experimental: Many of the Ionis designed oligonucleotides as well as ION 736697/Mongersen are complementary to mouse Smad7 mRNA. […] After a treatment period of approximately 16 hours, the cells were washed and lyzed and RNA on 384-well Pall plates with DNase I treatment. Smad7 mRNA levels were measured by quantitative real-time PCR. Primer probe set RTS1114 (forward sequence […], designated herein as SEQ ID NO: 8; reverse sequence […], designated herein as SEQ ID NO: 9; probe sequence […], designated herein as SEQ ID NO: 10) was used to measure murine Smad7 mRNA levels. Smad7 mRNA levels were adjusted according to total RNA content, as measured by RIBOGREEN®. Results are presented as percent inhibition of Smad7 mRNA expression, relative to untreated control cells.
Many of the Ionis oligonucleotides had greater potency than ION 736697/Mongersen.

[10] = test system: human peripheral blood mononuclear cells (PBMCs); experiment: Human PBMC activation assay, cytokine levels (IL-10, IL-6, MCP-1, TNF-α) in supernatant after 24 hours (Example 9); conditions: human PBMCs, 24 hours, in words
[11] = Pharmacokinetics: oligonucleotide concentration in tissues after oral gavage in beagle dogs (Example 12); format: in vivo
Experimental: There were 4 animals per group.
Canine tissue exposure following oral administration of the Ionis SMAD7 oligonucleotides was measured in various organs and intestinal tissues.
Plasma concentrations of Ionis oligonucleotides were also measured on Day 28 at various time points.

Which results are given for “ION 830025 (antisense TTTGTAAATCGAAAGC; 3-10-3 cEt gapmer, phosphorothioate, further chemistry not given here) [sodium salt]”?
Histopathology: oligonucleotide-related tissue alterations [1]: not associated with any antisense oligonucleotide-related tissue alterations; Mouse Smad7 mRNA expression (% inhibition), Colon ([2]; colon): 32 % inhibition; Mouse Smad7 mRNA expression (% inhibition), Duodenum ([2]; duodenum): 26 % inhibition; Mouse Smad7 mRNA expression (% inhibition), Ileum ([2]; ileum): 14 % inhibition; Mouse Smad7 mRNA expression (% inhibition), Kidney ([2]; kidney): 5 % inhibition; Mouse Smad7 mRNA expression (% inhibition), Liver ([2]; liver): 46 % inhibition; Smad7 mRNA reduction in tissues [3]: significant Smad7 mRNA reduction in various tissues; Efficacy in reducing Smad7 mRNA expression [4]: efficacious in reducing Smad7 mRNA expression; Tolerability (plasma chemistry markers) [5]: well tolerated; Potency/efficacy compared with ION 736697/Mongersen [6]: more efficacious than ION 736697/Mongersen; Tolerability (organ weights) [7]: very well tolerated; Tolerability (plasma chemistry markers) [8]: very well tolerated; Potency compared with ION 736697/Mongersen [9]: more potent than ION 736697/Mongersen; Cytokine and chemokine production (immunostimulatory profile) [10]: minimal cytokine and chemokine production which was similar or less than the negative control ASO; Tissue accumulation of oligonucleotide ([11]; 200 mg by oral gavage for 4 weeks, in words): Distal colon accumulation was detected; Oligonucleotide concentration in tissues, Distal colon ([11]; 200 mg oral gavage for 4 weeks, distal colon): 0.1 µg/g; Oligonucleotide concentration in tissues, Duodenum ([11]; 200 mg oral gavage for 4 weeks, duodenum): 0.8 µg/g; Oligonucleotide concentration in tissues, Ileum ([11]; 200 mg oral gavage for 4 weeks, ileum): 0.3 µg/g; Oligonucleotide concentration in tissues, Kidney ([11]; 200 mg oral gavage for 4 weeks, kidney): 48.1 µg/g; Oligonucleotide concentration in tissues, Liver ([11]; 200 mg oral gavage for 4 weeks, liver): 7.8 µg/g; Oligonucleotide concentration in tissues, Proximal colon ([11]; 200 mg oral gavage for 4 weeks, proximal colon): 0.2 µg/g
